Molecules are shown by their SMILES. pKd: −log10 of the molar value.

T1 sequence (Q86WV6 whole entry R71H/G230A/H232R/R293Q, looked up): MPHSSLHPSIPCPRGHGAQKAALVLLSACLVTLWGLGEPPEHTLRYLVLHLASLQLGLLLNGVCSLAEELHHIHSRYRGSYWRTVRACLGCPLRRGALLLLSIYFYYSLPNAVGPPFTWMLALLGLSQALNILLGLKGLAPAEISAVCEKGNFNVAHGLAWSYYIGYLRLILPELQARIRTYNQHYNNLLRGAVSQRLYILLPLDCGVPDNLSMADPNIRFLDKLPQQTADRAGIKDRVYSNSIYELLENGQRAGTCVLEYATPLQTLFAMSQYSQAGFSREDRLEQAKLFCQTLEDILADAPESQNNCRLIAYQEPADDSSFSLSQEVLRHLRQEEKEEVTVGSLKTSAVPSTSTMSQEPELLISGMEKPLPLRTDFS

This test has as its target T1, Stimulator of interferon genes protein [1-379,R71H,G230A,H232R,R293Q] (Homo sapiens, UniProt Q86WV6, G230A/H232R/R293Q/R71H).
T1 construct: 1-379
In words: Surface Plasmon Resonance (SPR). As for the experimental part: Briefly, approximately 20 nmol of recombinant STING protein in 1×TBS buffer (25 mM Tris-HCl, pH 7.5, 150 mM NaCl, 5 mM DTT) was mixed with of EZ-Link™ Sulfo-NHS-LC-LC-Biotin (Thermofisher Scientific, cat #21338) at a molar ratio of 1 to 0.6 and incubated on ice for 2 hours. To remove any unreacted biotin reagent, protein/biotin mixture was passed through a Superdex 75 (10/300 GL) column equilibrated with 10 mM HEPES, pH7.4, 150 mM NaCl, 5 mM DTT, 5%[v/v] glycerol. A protein peak containing biotinylated huSTING protein was collected and stored in aliquots at −80° C.Streptavidin was simultaneously immobilized in all four channels of a CM5 sensor chip docked in a Biacore instrument (either Biacore S200 or Biacore T200, GE Healthcare) as described previously (Zender 2013). Minimally biotinylated STING protein was captured onto a streptavidin coated chip surface at 8° C. in SPR binding buffer (50 mM HEPES, pH 7.4, 150 mM NaCl, 2%[v/v] DMSO) by gradually injecting in a single channel at a constant flow-rate of 2 μL/min until desired capture level was achieved, typically 3000 to 7000 RU (1 RU=1 pg/mm2).All binding experiments were performed at 8° C. in SPR binding buffer. To determine binding affinity, compound interaction with immobilized STING protein was analysed using dose-response experiments. Fresh 10 mM DMSO solutions of compound were diluted directly into SPR binding buffer typically to a concentration of 50 μM and then further diluted 2-fold or 3-fold aiming for either a 5- or 7-point concentration series range. Each ligand concentration series was injected at a constant flow rate of 60 μL/min with a 90 second association and a 180 second dissociation time.
The molecule `COc1c(C(N)=O)ccc2c1nc(-c1ccc(Cl)cc1C(=O)O)n2CCn1c(-c2ccc(Cl)cc2C(=O)O)nc2c(OC)c(C(N)=O)ccc21` [US12415785, Example 1] gave a negative logarithm of the Kd (pKd) of 4.78. The molecule `NC(=O)c1ccc2c(c1)nc(-c1ccccc1C(=O)O)n2CCn1c(-c2ccccc2C(=O)O)nc2cc(C(N)=O)ccc21` [US12415785, Example 2] showed a pKd of 4.17.

For `NC(=O)c1ccc2c(c1)nc(-c1ccccc1-c1nn[nH]n1)n2CCn1c(-c2ccccc2-c2nnn[nH]2)nc2cc(C(N)=O)ccc21` [US12415785, Example 5], the negative-log Kd (pKd) is 4.71.

`COc1c(C(N)=O)ccc2c1nc(-c1ccccc1-c1nn[nH]n1)n2CCn1c(-c2ccccc2-c2nn[nH]n2)nc2c(OC)c(C(N)=O)ccc21` [US12415785, Example 6]: the negative logarithm of the Kd (pKd) was 4.92. The same measure for `COc1c(C(N)=O)ccc2c1nc(-c1ccc(Cl)cc1-c1nn[nH]n1)n2CCn1c(-c2ccc(Cl)cc2-c2nn[nH]n2)nc2c(OC)c(C(N)=O)ccc21` [US12415785, Example 9]: 5.58.

`COc1c(C(N)=O)ccc2c1nc(-c1c(F)cccc1C(=O)O)n2CCn1c(-c2c(F)cccc2C(=O)O)nc2c(OC)c(C(N)=O)ccc21` [US12415785, Example 10] showed a pKd of 6.74.

`COc1c(C(N)=O)ccc2c1nc(-c1c(F)cc(Cl)cc1C(=O)O)n2CCn1c(-c2c(F)cc(Cl)cc2C(=O)O)nc2c(OC)c(C(N)=O)ccc21` [US12415785, Example 11]: the pKd was 7.11.

In turn, `COc1c(C(N)=O)ccc2c1nc(-c1cc(F)c(F)cc1C(=O)O)n2CCn1c(-c2cc(F)c(F)cc2C(=O)O)nc2c(OC)c(C(N)=O)ccc21` [US12415785, Example 15] had a pKd of 5.20. To `COc1c(C(N)=O)ccc2c1nc(-c1c(F)cc(F)cc1C(=O)O)n2CCn1c(-c2c(F)cc(F)cc2C(=O)O)nc2c(OC)c(C(N)=O)ccc21` [US12415785, Example 16] belongs 6.78; to `COc1c(C(N)=O)ccc2c1nc(-c1ccc(Cl)cc1-c1n[nH]c(=O)o1)n2CCn1c(-c2ccc(Cl)cc2-c2n[nH]c(=O)o2)nc2c(OC)c(C(N)=O)ccc21` [US12415785, Example 17], 6.38.

With `COc1c(C(N)=O)cc(F)c2c1nc(-c1c(F)cc(F)cc1C(=O)O)n2CCn1c(-c2c(F)cc(F)cc2C(=O)O)nc2c(OC)c(C(N)=O)cc(F)c21` [US12415785, Example 18], the pKd is 6.84. Turning to `COc1c(C(N)=O)ccc2c1nc(-c1c(I)cccc1C(=O)O)n2CCn1c(-c2c(I)cccc2C(=O)O)nc2c(OC)c(C(N)=O)ccc21` [US12415785, Example 19.1], the negative-log Kd (pKd) is 8.70. On to `COc1c(C(N)=O)cc(F)c2c1nc(-c1ccc(Cl)cc1C(=O)O)n2CCn1c(-c2ccc(Cl)cc2C(=O)O)nc2c(OC)c(C(N)=O)cc(F)c21` [US12415785, Example 20], for which the negative-log Kd (pKd) was 4.89.

`COC(=O)c1c(Br)cccc1-c1nc2c(OC)c(C(N)=O)ccc2n1CCn1c(-c2cccc(Br)c2C(=O)OC)nc2c(OC)c(C(N)=O)ccc21` [US12415785, Example 21] showed a negative-log Kd (pKd) of 5.96. `COc1c(C(N)=O)ccc2c1nc(-c1c(Cl)cccc1C(=O)O)n2CCn1c(-c2c(Cl)cccc2C(=O)O)nc2c(OC)c(C(N)=O)ccc21` [US12415785, Example 22] showed a negative-log Kd (pKd) of 8.70. The same measure for `COc1c(C(N)=O)ccc2c1nc(-c1c(Cl)cccc1-c1nn[nH]n1)n2CCn1c(-c2c(Cl)cccc2-c2nn[nH]n2)nc2c(OC)c(C(N)=O)ccc21` [US12415785, Example 23]: 8.70. The molecule `COc1c(C(N)=O)ccc2c1nc(-c1ccc(Cl)cc1-c1cn[nH]n1)n2CCn1c(-c2ccc(Cl)cc2-c2cn[nH]n2)nc2c(OC)c(C(N)=O)ccc21` [US12415785, Example 24] had a negative-log Kd (pKd) of 4.66. This pKd lies 4.04 log units lower than the previous one.

Turning to `COc1c(C(N)=O)ccc2c1nc(-c1ccc(C)cc1C(=O)O)n2CCn1c(-c2ccc(C)cc2C(=O)O)nc2c(OC)c(C(N)=O)ccc21` [US12415785, Example 25], the negative-log Kd (pKd) is 4.71.

Turning to `COc1c(C(N)=O)ccc2c1nc(-c1cc(C)ccc1C(=O)O)n2CCn1c(-c2cc(C)ccc2C(=O)O)nc2c(OC)c(C(N)=O)ccc21` [US12415785, Example 26], the negative logarithm of the Kd (pKd) was 4.49. To `NC(=O)c1ccc2c(c1)nc(-c1c(Br)cccc1C(=O)O)n2CCn1c(-c2c(Br)cccc2C(=O)O)nc2cc(C(N)=O)ccc21` [US12415785, Example 29.1] belongs 6.03. The molecule `COc1c(C(N)=O)ccc2c1nc(-c1cnccc1C(=O)O)n2CCn1c(-c2cnccc2C(=O)O)nc2c(OC)c(C(N)=O)ccc21` [US12415785, Example 30] gave a pKd of 4.05. The same measure for `COc1c(C(N)=O)ccc2c1nc(-c1ncc(Cl)cc1C(=O)O)n2CCn1c(-c2ncc(Cl)cc2C(=O)O)nc2c(OC)c(C(N)=O)ccc21` [US12415785, Example 31]: 4.26.

`CCc1ccc(-c2nc3c(OC)c(C(N)=O)ccc3n2CCn2c(-c3ccc(CC)cc3C(=O)O)nc3c(OC)c(C(N)=O)ccc32)c(C(=O)O)c1` [US12415785, Example 33] gave a negative-log Kd (pKd) of 4.11. `COc1c(C(N)=O)ccc2c1nc(-c1ccc(Cl)cc1C(=O)O)n2C/C=C/Cn1c(-c2ccc(Cl)cc2C(=O)O)nc2c(OC)c(C(N)=O)ccc21` [US12415785, Example 34] showed a pKd of 4.59. In turn, `COc1c(C(N)=O)ccc2c1nc(-c1ccc(Cl)cc1C(=O)O)n2CCCn1c(-c2ccc(Cl)cc2C(=O)O)nc2c(OC)c(C(N)=O)ccc21` [US12415785, Example 35] had a pKd of 4.46. The molecule `NC(=O)c1ccc2c(c1)nc(-c1ccc(Cl)cc1C(=O)O)n2CCn1c(-c2ccc(Cl)cc2C(=O)O)nc2cc(C(N)=O)ccc21` [US12415785, Example 39] showed a pKd of 3.52.

As for `COc1c(C(N)=O)ccc2c1nc(-c1cccc(Cl)c1-c1nn[nH]n1)n2CCn1c(-c2cccc(Cl)c2-c2nn[nH]n2)nc2c(OC)c(C(N)=O)ccc21` [US12415785, Example 40], the pKd was 4.19. Against the preceding molecule, the pKd is 0.67 log units higher. Molecule `COc1ccc(-c2nc3c(OC)c(C(N)=O)ccc3n2CCn2c(-c3ccc(OC)cc3C(=O)O)nc3c(OC)c(C(N)=O)ccc32)c(C(=O)O)c1` [US12415785, Example 41] showed a negative-log Kd (pKd) of 4.08. Turning to `COc1c(C(N)=O)ccc2c1nc(-c1cc(Cl)ccc1-c1nn[nH]n1)n2CCn1c(-c2cc(Cl)ccc2-c2nn[nH]n2)nc2c(OC)c(C(N)=O)ccc21` [US12415785, Example 42], the negative-log Kd (pKd) is 4.83. In the case of `COc1c(C(N)=O)ccc2c1nc(-c1c(F)cc(F)cc1-c1nn[nH]n1)n2CCn1c(-c2c(F)cc(F)cc2-c2nn[nH]n2)nc2c(OC)c(C(N)=O)ccc21` [US12415785, Example 43], the negative-log Kd (pKd) was 7.02. This pKd lies 2.19 log units higher than the previous one.

`COc1c(C(N)=O)ccc2c1nc(-c1c(F)cc(F)cc1-c1n[nH]c(=O)o1)n2CCn1c(-c2c(F)cc(F)cc2-c2n[nH]c(=O)o2)nc2c(OC)c(C(N)=O)ccc21` [US12415785, Example 44] gave a pKd of 6.37.

The molecule `COc1c(C(N)=O)ccc2c1nc(-c1c(F)cc(Cl)cc1-c1nn[nH]n1)n2CCn1c(-c2c(F)cc(Cl)cc2-c2nn[nH]n2)nc2c(OC)c(C(N)=O)ccc21` [US12415785, Example 46] gave a pKd of 7.60. Molecule `COc1c(C(N)=O)ccc2c1nc(-c1c(F)cccc1-c1nn[nH]n1)n2CCn1c(-c2c(F)cccc2-c2nn[nH]n2)nc2c(OC)c(C(N)=O)ccc21` [US12415785, Example 48] gave a negative-log Kd (pKd) of 7.52. To `COc1c(C(N)=O)ccc2c1nc(-c1c(F)cccc1-c1n[nH]c(=O)o1)n2CCn1c(-c2c(F)cccc2-c2n[nH]c(=O)o2)nc2c(OC)c(C(N)=O)ccc21` [US12415785, Example 49] belongs 7.51. `COc1c(C(N)=O)ccc2c1nc(-c1c(F)cc(Cl)cc1-c1n[nH]c(=O)o1)n2CCn1c(-c2c(F)cc(Cl)cc2-c2n[nH]c(=O)o2)nc2c(OC)c(C(N)=O)ccc21` [US12415785, Example 50]: the pKd was 7.85.

Values taken from BindingDB's records for patent US12415785 (Ctxt, 2025).
